The text below walks through data of patent publication US7319103B2, “Non-imidazole tertiary amines as histamine 3 receptor inhibitors for the treatment of cognitive and sleep disorders, obesity and other CNS disorders” (Athersys, Inc., priority 2004, dated 2008).

Where only a bound is given, the exact number is not on record here.

A word on the Ki: it is a dissociation constant, usually derived from enzyme kinetics or from competition with a known ligand. A lower Ki goes with tighter binding.

Assay [1] concerns the target mouse H3 receptor (Mus musculus, UniProt P58406). Nature of the assay: Radioligand competition binding assay, mouse H3 receptor. To be noted: competition binding vs [3H]Nα-methylhistamine (~2 nM), membranes of cells expressing mouse H3 receptor. Here is the method: (§1) Representative compounds of the present invention that were prepared by the procedures of the Examples were evaluated in binding assays against cells expressing the mouse and human H3 receptor by the following procedure.
(§2) Cells were washed with cold PBS buffer twice, scraped off the plates, and centrifuged at 1000×g for 5 minutes. Cells were resuspended in ice-cold buffer of 10 mM Tris, pH 7.4, 5 mM EDTA, protease inhibitor cocktail tablets (Roche Molecular Biochemicals) and incubated on ice for 10 minutes. The mixture was then homogenized with a dounce homogenizer or a polytron tissue grinder and centrifuged at 1000×g for 10 min at 4° C. The supernatant was centrifuged at 32,000×g for 30 min at 4° C. The membrane pellet was resuspended in a buffer of 50 mM Tris, pH 7.4 with protease inhibitor cocktail tablets and stored at −80° C. until use. Protein concentration was determined by the methods of Bradford.
(§3) Membranes were homogenized in buffer containing 50 mM Tris/HCl, 1 mM EDTA pH 7.4, and protease inhibitor cocktail tablets. Dissociation constants of radioligand (KD values) and maximum binding sites (Bmax) were determined in saturation binding experiments. Ki and IC50 were determined in competition binding assays using a fixed amount of radioligand.
(§4) Saturation binding assays were carried out in 96-well polypropylene plates in triplicate or quadruplicate. Reaction mixtures contained 100 μl of membrane suspension (˜100 μg/well), 50 μl of 4% DMSO, 50 μl of increasing amounts of [^3H]N^α-methylhistamine (final concentration of 0.01-20 nM). Nonspecific binding was defined with 10 uM clobenpropit. Competition binding assays were performed in a reaction mixture containing 100 μl of membrane suspension, 50 μl of [H]N^α-methylhistamine (final concentration of ˜2 nM), and 50 μl compounds. […] Incubations were carried out for 1.5 hours at room temperature. Reactions were terminated by rapid filtration over glass fibre GF/C filters (Perkin Elmers, MA) that had been presoaked in 0.3% PEI, using a Brandel cell harvester. The filters were washed with 500 ml of ice-cold buffer containing 50 mM Tris-HCl, pH 7.4, and were subsequently dried, impregnated with Meltilex wax scintillate (Perkin Elmers, MA) and counted with a Betaplate scintillation counter (Perkin Elmers, MA).
(§5) All data were analyzed by nonlinear least square curve fitting using Prism 4.0 software. The KD for [^3H]N^α-methylhistamine and the Bmax were derived from equation RL=RfL/(KD+L). RL is concentration of receptor-bound ligand at equilibrium, L is the free ligand concentration, Rf is the total receptor concentration. For competition binding experiments, IC50 (the concentration of compound producing 50% inhibition of specific binding) was derived from fitting to a 4-parameter logistic equation. Apparent Ki values were calculated using the Cheng-Prussof equation of Ki=IC50/(1+(L)/Kd), L is the ligand concentration. Agonist stimulation and antagonist inhibition in FLIPR were fitted to sigmoidal dose response using equation Y=Bottom+(Top-Bottom)/(1+10^((LogEC50-X))), X is the logarithm of concentration of compounds. Y is the response.
For orientation: In a radioligand displacement assay an active substance lowers the binding of a labelled ligand.

Assay [2] concerns the target T1, human H3 receptor (Homo sapiens, UniProt Q9Y5N1).
T1 construct: Expression of this receptor was provided by utilization of the RAGE methodology; endogenous in cells; host or cells: HT1080 (human fibrosarcoma) cells, H3 expression switched on by RAGE; co-transfected with chimeric G-protein Gqαi5
Nature of the assay: Radioligand competition binding assay, human H3 receptor (HT1080 cell membranes). The settings on record: competition binding vs [3H]Nα-methylhistamine (~2 nM), membranes of HT1080 cells expressing human H3 receptor. As for the experimental part: as §1
An HT1080 cell line was produced that expresses the human H3 receptor. Expression of this receptor was provided by utilization of the RAGE methodology (Harrington et al., 2001) Nature Biotechol. 19:440-5. This cell line was transfected with the chimeric G-protein Gqαi5 (Conklin et al., 1993) Nature 363:274-6 to facilitate assessment of receptor activation through the analysis of intercellular Ca^++ levels using a fluorescence assay. The HT1080 cells expressing human histamine H3 receptor and Gqαi5 were grown in alpha-modified MEM containing 10% FBS, 3 ug/ml puromycin, 7 ug/ml blasticidin, and 3.2 uM methotrexate at 37° C. in 5% CO2/95% atmosphere.
as §2, §3, §4, §5

Sequence of mouse H3 receptor (P58406 whole entry): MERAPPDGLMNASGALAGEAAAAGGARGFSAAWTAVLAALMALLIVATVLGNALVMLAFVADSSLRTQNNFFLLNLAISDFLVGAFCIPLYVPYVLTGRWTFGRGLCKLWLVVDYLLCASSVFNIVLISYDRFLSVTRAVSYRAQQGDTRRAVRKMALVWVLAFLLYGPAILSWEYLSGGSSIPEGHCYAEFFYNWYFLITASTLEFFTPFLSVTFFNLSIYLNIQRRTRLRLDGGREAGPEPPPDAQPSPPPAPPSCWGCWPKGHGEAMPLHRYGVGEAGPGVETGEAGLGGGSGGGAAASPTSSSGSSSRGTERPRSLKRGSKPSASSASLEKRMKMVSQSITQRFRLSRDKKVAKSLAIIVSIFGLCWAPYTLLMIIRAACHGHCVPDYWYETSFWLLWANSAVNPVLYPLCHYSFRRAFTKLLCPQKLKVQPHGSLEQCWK
T1 sequence (Q9Y5N1 whole entry): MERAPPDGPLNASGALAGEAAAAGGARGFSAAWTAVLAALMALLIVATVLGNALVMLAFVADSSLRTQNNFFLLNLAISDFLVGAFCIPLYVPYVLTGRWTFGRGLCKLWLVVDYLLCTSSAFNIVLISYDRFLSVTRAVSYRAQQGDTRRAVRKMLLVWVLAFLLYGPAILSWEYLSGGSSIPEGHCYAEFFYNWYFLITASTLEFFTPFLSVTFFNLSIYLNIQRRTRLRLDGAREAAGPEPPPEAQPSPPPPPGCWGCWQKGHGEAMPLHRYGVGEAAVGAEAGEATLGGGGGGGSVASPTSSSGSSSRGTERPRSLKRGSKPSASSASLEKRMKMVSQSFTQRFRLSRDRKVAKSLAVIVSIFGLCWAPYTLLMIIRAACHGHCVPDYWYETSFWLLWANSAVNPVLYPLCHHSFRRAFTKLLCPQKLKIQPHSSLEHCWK

`CC1CCCN1CCCOc1ccc(-c2c3c(nc4ccnn24)CCCCC3)cc1` (centres unmarked) [10-{4-[3-(2-Methyl-pyrrolidin-1-yl)-propoxy]-phenyl}-6,7,8,9-tetrahydro-5H-1,4,10a-triaza-cyclohepta[f]indene]: the Ki in assay [1] and in assay [2] was less than 50 nM each time.

Regarding `O[C@H]1CCN(CCc2cc3cc(-c4c5c(nc6ccnn46)CCC5)ccc3o2)C1` [1-{2-[5-(6,7-Dihydro-5H-1,4,8a-triaza-s-indacen-8-yl)-benzofuran-2-yl]-ethyl}-pyrrolidin-3-(S)-ol], the Ki in assay [1] is less than 500 nM; in assay [2], less than 50 nM.

Regarding `c1cc(OCCCN2CCCCC2)cc(-c2c3c(nc4ccnn24)CCCCC3)c1` [10-[3-(3-Piperidin-1-yl-propoxy)-phenyl]-6,7,8,9-tetrahydro-5H-1,4,10a-triaza-cyclohepta[f]indene], the values for the Ki in assay [1] and in assay [2] were less than 5000 nM and less than 500 nM, respectively.

For `CC1CCCN1CCCOc1ccc(-c2c3c(nc4ccnn24)COC3)cc1` (centres unmarked) [8-{4-[3-(2-Methyl-pyrrolidin-1-yl)-propoxy]-phenyl}-5H,7H-6-oxa-1,4,8a-triaza-s-indacene], the inhibition constant (Ki) in assay [1] and in assay [2] was less than 50 nM throughout.

Take `O[C@@H]1CCN(CCCOc2ccc(-c3c4c(nc5ccnn35)CCC4)cc2)C1` [1-{3-[4-(6,7-Dihydro-5H-1,4,8a-triaza-s-indacen-8-yl)-phenoxy]-propyl}-pyrrolidin-3-(R)-ol]: the Ki in assay [1] and in assay [2] was less than 50 nM in each case.

For `COC[C@H]1CCCN1CCc1cc2cc(-c3c4c(nc5ccnn35)CCC4)ccc2o1` [8-{2-[2-(R)-(2-Methoxymethyl-pyrrolidin-1-yl)-ethyl]-benzofuran-5-yl}-6,7-dihydro-5H-1,4,8a-triaza-s-indacene], the Ki in assay [1] and in assay [2] was less than 500 nM throughout.

Take `O[C@H]1CCN(CCCOc2ccc(-c3c4c(nc5ccnn35)CCC4)cc2)C1` [1-{3-[4-(6,7-Dihydro-5H-1,4,8a-triaza-s-indacen-8-yl)-phenoxy]-propyl}-pyrrolidin-3-(S)-ol]: the Ki in assay [1] and in assay [2] was less than 50 nM in each case.

`C[C@@H]1CC[C@@H](C)N1CCCOc1ccc(-c2c3c(nc4ccnn24)CCCCC3)cc1` [10-{4-[3-(2,5-(R,R)-Dimethyl-pyrrolidin-1-yl)-propoxy]-phenyl}-6,7,8,9-tetrahydro-5H-1,4,10a-triaza-cyclohepta[f]indene]: the Ki in assay [1] is less than 500 nM; in assay [2], less than 50 nM.

Turning to `CC1CCCN1CCc1cc2cc(-c3c4c(nc5ccnn35)CCC4)ccc2o1` (centres unmarked) [8-{2-[2-(2-Methyl-pyrrolidin-1-yl)-ethyl]-benzofuran-5-yl}-6,7-dihydro-5H-1,4,8a-triaza-s-indacene], the Ki in assay [1] and in assay [2] was less than 50 nM in each case.

`c1ccc2c(-c3ccc(OCCCN4CCCC4)cc3)c3c(nc2c1)CCCCC3` [11-[4-(3-Pyrrolidin-1-yl-propoxy)-phenyl]-7,8,9,10-tetrahydro-6H-cyclohepta[b]quinoline]: the Ki in assay [1] is less than 500 nM; in assay [2] it was less than 50 nM.

On to `CN(C)[C@@H]1CCN(CCc2cc3cc(-c4c5c(nc6ccnn46)CCC5)ccc3o2)C1` [(1-{2-[5-(6,7-Dihydro-5H-1,4,8a-triaza-s-indacen-8-yl)-benzofuran-2-yl]-ethyl}-pyrrolidin-3-yl)-(R)-dimethyl-amine], for which the Ki in assay [1] and in assay [2] was less than 500 nM throughout.

For the compound `CC1CCCN1CCc1cc2cc(-c3c4c(nc5ccnn35)CCCC4)ccc2o1` (centres unmarked) [9-{2-[2-(2-Methyl-pyrrolidin-1-yl)-ethyl]-benzofuran-5-yl}-5,6,7,8-tetrahydro-pyrazolo[5,1-b]quinazoline], the Ki in assay [1] is less than 500 nM; in assay [2], less than 50 nM.

In the case of `c1ccc2c(-c3ccc(OCCCN4CCCC4)cc3)c3c(nc2c1)CCCC3` [9-[4-(3-Pyrrolidin-1-yl-propoxy)-phenyl]-1,2,3,4-tetrahydro-acridine], the values for the Ki in assay [1] and in assay [2] were less than 500 nM and less than 50 nM, respectively.

`c1cc2nc3c(c(-c4ccc(OCCCN5CCOCC5)cc4)n2n1)CCC3` [8-[4-(3-Morpholin-4-yl-propoxy)-phenyl]-6,7-dihydro-5H-1,4,8a-triaza-s-indacene]: the results for the Ki in assay [1] and in assay [2] were less than 500 nM and less than 50 nM, respectively.

In the case of `c1cc2nc3c(c(-c4ccc5oc(CCN6CCCC6)cc5c4)n2n1)CCC3` [8-[2-(2-Pyrrolidin-1-yl-ethyl)-benzofuran-5-yl]-6,7-dihydro-5H-1,4,8a-triaza-s-indacene], the Ki was less than 500 nM in assay [1] and less than 50 nM in assay [2].

`c1cc(OCCCN2CCCC2)cc(-c2c3c(nc4ccnn24)CCCCC3)c1` [10-[3-(3-Pyrrolidin-1-yl-propoxy)-phenyl]-6,7,8,9-tetrahydro-5H-1,4,10a-triaza-cyclohepta[f]indene]: the Ki in assay [1] is less than 5000 nM; in assay [2], less than 500 nM.
